pKd: −log10 of the molar value. Where “and” joins values, the source holds several entries; their conditions need not be identical. Equal values may be shown once.
Tests used:
HsProRS = HsProRS (Homo sapiens, UniProt P07814); assay: TR-FRET ligand displacement assay with tracer MAT379 (CoraFluor-1-Halo and anti-His6 antibody formats); type: binding; design: made in house; host or cells: E. coli SoluBL-21; conditions: for TR-FRET dose-response, normalized signal (SI Fig 11): individual replicates; for normalized TR-FRET signal (dose-response replicates): SI Fig 15, antibody format
HsProRS, sequence (P07814 996-1512): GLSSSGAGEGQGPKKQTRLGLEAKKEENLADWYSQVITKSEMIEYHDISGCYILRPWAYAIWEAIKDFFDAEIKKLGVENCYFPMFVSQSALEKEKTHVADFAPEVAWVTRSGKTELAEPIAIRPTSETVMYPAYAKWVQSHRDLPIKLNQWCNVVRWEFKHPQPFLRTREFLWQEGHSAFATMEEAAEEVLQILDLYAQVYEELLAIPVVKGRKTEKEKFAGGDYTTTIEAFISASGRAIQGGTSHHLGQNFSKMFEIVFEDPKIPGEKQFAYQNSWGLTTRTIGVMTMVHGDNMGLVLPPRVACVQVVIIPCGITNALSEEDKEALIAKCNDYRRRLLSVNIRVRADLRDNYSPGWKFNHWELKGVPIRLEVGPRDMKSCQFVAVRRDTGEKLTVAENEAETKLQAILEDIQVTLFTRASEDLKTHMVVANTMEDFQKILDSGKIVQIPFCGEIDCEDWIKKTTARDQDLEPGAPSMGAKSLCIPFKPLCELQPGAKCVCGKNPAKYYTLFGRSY

P. falciparum Dd2-2D4 = assay: P. falciparum asexual blood stage (ABS) growth assay, SYBR Green, 72 h, wild-type parasites; type: cell-based, Plasmodium falciparum; conditions: Dd2-2D4
[1] = Log[inhibitor] (M) -5.000, listed as Halofuginone (1)
[2] = Log[inhibitor] (M) -7.602, listed as Halofuginone (1)

SMILES: O=C(CC1NCCCC1O)Cn1cnc2cc(Br)c(Cl)cc2c1=O (stereo not shown) [Halofuginone]
- normalized TR-FRET signal (Fig 2j) (HsProRS; Halofuginone series, Log[inhibitor] (M) -5.301): 4.67E-01 and 4.34E-01 and 5.01E-01
- normalized TR-FRET signal (Fig 2j) (HsProRS; Halofuginone series, Log[inhibitor] (M) -5.602): 6.44E-01 and 5.92E-01 and 5.65E-01
- normalized TR-FRET signal (Fig 2j) (HsProRS; Halofuginone series, Log[inhibitor] (M) -7.107): 1.11E+00 and 9.45E-01 and 9.98E-01
- pKd (HsProRS; HsProRS - best Kd, SI Fig 16a, values on -log scale): 9.65
- TR-FRET dose-response, normalized signal (SI Fig 11) (HsProRS; [1]): 1.22E-01 and 1.04E-01 and 9.99E-02
- normalized TR-FRET ligand displacement signal, dose-response replicates (SI Fig 6) (HsProRS; [1]): 8.67E-01 and 9.21E-01 and 8.89E-01
- normalized TR-FRET ligand displacement signal, dose-response replicates (SI Fig 6) (HsProRS; Log[inhibitor] (M) -5.258, listed as Halofuginone (1)): 9.18E-01 and 9.29E-01 and 9.59E-01
- TR-FRET dose-response, normalized signal (SI Fig 11) (HsProRS; Log[inhibitor] (M) -5.301, listed as Halofuginone (1)): 2.23E-01 and 2.19E-01 and 2.35E-01
- normalized TR-FRET ligand displacement signal, dose-response replicates (SI Fig 6) (HsProRS; Log[inhibitor] (M) -5.517, listed as Halofuginone (1)): 9.53E-01 and 1.02E+00 (2×)
- TR-FRET dose-response, normalized signal (SI Fig 11) (HsProRS; Log[inhibitor] (M) -5.602, listed as Halofuginone (1)): 3.79E-01 and 3.48E-01 and 2.87E-01
- normalized TR-FRET ligand displacement signal, dose-response replicates (SI Fig 6) (HsProRS; Log[inhibitor] (M) -5.775, listed as Halofuginone (1)): 1.06E+00 and 1.00E+00 and 1.07E+00
- normalized TR-FRET signal (Fig 2j) (HsProRS; Log[inhibitor] (M) -5.903): 7.44E-01 and 8.56E-01 and 7.84E-01
- TR-FRET dose-response, normalized signal (SI Fig 11) (HsProRS; Log[inhibitor] (M) -5.903, listed as Halofuginone (1)): 5.30E-01 and 5.36E-01 and 5.41E-01
- normalized TR-FRET ligand displacement signal, dose-response replicates (SI Fig 6) (HsProRS; Log[inhibitor] (M) -6.018, listed as Halofuginone (1)): 1.05E+00 and 1.10E+00 and 1.02E+00
- normalized TR-FRET signal (Fig 2j) (HsProRS; Log[inhibitor] (M) -6.204): 8.25E-01 and 9.54E-01 and 7.75E-01
- TR-FRET dose-response, normalized signal (SI Fig 11) (HsProRS; Log[inhibitor] (M) -6.204, listed as Halofuginone (1)): 7.34E-01 and 7.40E-01 and 6.73E-01
- normalized TR-FRET ligand displacement signal, dose-response replicates (SI Fig 6) (HsProRS; Log[inhibitor] (M) -6.281, listed as Halofuginone (1)): 1.08E+00 and 1.03E+00 and 1.07E+00
- normalized TR-FRET signal (Fig 2j) (HsProRS; Log[inhibitor] (M) -6.505): 1.04E+00 and 9.85E-01 and 1.03E+00
- TR-FRET dose-response, normalized signal (SI Fig 11) (HsProRS; Log[inhibitor] (M) -6.505): 7.32E-01
- TR-FRET dose-response, normalized signal (SI Fig 11) (HsProRS; Log[inhibitor] (M) -6.505, listed as Halofuginone (1)): 7.86E-01 and 7.92E-01
- normalized TR-FRET ligand displacement signal, dose-response replicates (SI Fig 6) (HsProRS; Log[inhibitor] (M) -6.535, listed as Halofuginone (1)): 1.04E+00 and 1.03E+00 and 9.64E-01
- normalized TR-FRET ligand displacement signal, dose-response replicates (SI Fig 6) (HsProRS; Log[inhibitor] (M) -6.796, listed as Halofuginone (1)): 1.04E+00 and 1.03E+00 (2×)
- normalized TR-FRET signal (Fig 2j) (HsProRS; Log[inhibitor] (M) -6.806): 9.63E-01 and 9.86E-01 and 9.32E-01
- TR-FRET dose-response, normalized signal (SI Fig 11) (HsProRS; Log[inhibitor] (M) -6.806, listed as Halofuginone (1)): 8.94E-01 and 8.80E-01 and 8.52E-01
- normalized TR-FRET ligand displacement signal, dose-response replicates (SI Fig 6) (HsProRS; Log[inhibitor] (M) -7.056, listed as Halofuginone (1)): 1.05E+00 and 1.11E+00 and 1.07E+00
- TR-FRET dose-response, normalized signal (SI Fig 11) (HsProRS; Log[inhibitor] (M) -7.107, listed as Halofuginone (1)): 9.88E-01 and 8.65E-01 and 9.16E-01
- normalized TR-FRET ligand displacement signal, dose-response replicates (SI Fig 6) (HsProRS; Log[inhibitor] (M) -7.319, listed as Halofuginone (1)): 1.04E+00 (2×) and 1.02E+00
- normalized TR-FRET signal (Fig 2j) (HsProRS; Log[inhibitor] (M) -7.408): 1.05E+00 and 9.28E-01 and 8.93E-01
- TR-FRET dose-response, normalized signal (SI Fig 11) (HsProRS; Log[inhibitor] (M) -7.408, listed as Halofuginone (1)): 9.10E-01 and 9.40E-01 and 9.15E-01
- normalized TR-FRET ligand displacement signal, dose-response replicates (SI Fig 6) (HsProRS; Log[inhibitor] (M) -7.553): 1.10E+00
- normalized TR-FRET ligand displacement signal, dose-response replicates (SI Fig 6) (HsProRS; Log[inhibitor] (M) -7.553, listed as Halofuginone (1)): 1.16E+00
- normalized TR-FRET signal (Fig 2j) (HsProRS; Log[inhibitor] (M) -7.709): 9.59E-01 and 9.28E-01 and 9.82E-01
- TR-FRET dose-response, normalized signal (SI Fig 11) (HsProRS; Log[inhibitor] (M) -7.709, listed as Halofuginone (1)): 9.34E-01 (2×) and 9.38E-01
- normalized TR-FRET ligand displacement signal, dose-response replicates (SI Fig 6) (HsProRS; Log[inhibitor] (M) -7.796, listed as Halofuginone (1)): 1.10E+00 and 1.04E+00 and 1.03E+00
- normalized TR-FRET signal (Fig 2j) (HsProRS; Log[inhibitor] (M) -8.010): 9.03E-01 and 1.00E+00 and 9.95E-01
- TR-FRET dose-response, normalized signal (SI Fig 11) (HsProRS; Log[inhibitor] (M) -8.010, listed as Halofuginone (1)): 9.18E-01 and 9.71E-01 and 9.55E-01
- normalized TR-FRET ligand displacement signal, dose-response replicates (SI Fig 6) (HsProRS; Log[inhibitor] (M) -8.097, listed as Halofuginone (1)): 1.01E+00 and 1.03E+00 and 1.08E+00
- normalized TR-FRET signal (Fig 2j) (HsProRS; Log[inhibitor] (M) -8.311): 9.63E-01 and 1.06E+00 and 1.04E+00
- TR-FRET dose-response, normalized signal (SI Fig 11) (HsProRS; Log[inhibitor] (M) -8.311, listed as Halofuginone (1)): 9.28E-01 and 9.37E-01 and 9.39E-01
- normalized TR-FRET ligand displacement signal, dose-response replicates (SI Fig 6) (HsProRS; Log[inhibitor] (M) -8.398, listed as Halofuginone (1)): 1.06E+00 and 1.03E+00 and 1.05E+00
- normalized TR-FRET ligand displacement signal, dose-response replicates (SI Fig 6) (HsProRS; Log[inhibitor] (M) -8.585, listed as Halofuginone (1)): 1.04E+00 and 1.03E+00 and 1.02E+00
- normalized TR-FRET signal (Fig 2j) (HsProRS; Log[inhibitor] (M) -8.612): 1.10E+00 and 1.01E+00 and 9.98E-01
- TR-FRET dose-response, normalized signal (SI Fig 11) (HsProRS; Log[inhibitor] (M) -8.612, listed as Halofuginone (1)): 9.43E-01 and 9.93E-01 and 8.80E-01
- normalized TR-FRET signal (Fig 2j) (HsProRS; Log[inhibitor] (M) -8.913): 1.04E+00 and 1.15E+00 and 9.02E-01
- TR-FRET dose-response, normalized signal (SI Fig 11) (HsProRS; Log[inhibitor] (M) -8.913, listed as Halofuginone (1)): 9.29E-01 and 9.23E-01 and 1.01E+00
- normalized TR-FRET signal (Fig 2j) (HsProRS; Log[inhibitor] (M) -9.214): 9.13E-01 and 9.87E-01 and 1.00E+00
- TR-FRET dose-response, normalized signal (SI Fig 11) (HsProRS; Log[inhibitor] (M) -9.214, listed as Halofuginone (1)): 1.03E+00 and 9.64E-01 and 9.56E-01
- normalized TR-FRET signal (dose-response replicates) (HsProRS; Log[inhibitor] (M) -7, listed as Halofuginone (1)): -5.10E-02 and 1.45E-01 and 6.11E-02 and -8.68E-02 and 8.71E-02 and -1.63E-01
- normalized TR-FRET signal (dose-response replicates) (HsProRS; Log[inhibitor] (M) -7.301, listed as Halofuginone (1)): -1.11E-01 and 1.65E-02 and 1.81E-01 and 1.03E-01 and -9.48E-02 and 1.44E-01
- normalized TR-FRET signal (dose-response replicates) (HsProRS; [2]): -2.32E-02 and 2.15E-01 and 1.05E-01 and 1.32E-01 and 1.04E-01 and 2.19E-02
- normalized TR-FRET signal (dose-response replicates) (HsProRS; Log[inhibitor] (M) -7.902, listed as Halofuginone (1)): 1.55E-01 and 5.85E-02 and 2.37E-01 and 1.20E-01 and -3.85E-02 and 1.09E-01
- normalized TR-FRET signal (dose-response replicates) (HsProRS; Log[inhibitor] (M) -8.206, listed as Halofuginone (1)): 1.08E-02 and 1.11E-01 and 2.70E-01 and 1.81E-01 and 6.79E-02 and 2.75E-01
- normalized TR-FRET signal (dose-response replicates) (HsProRS; Log[inhibitor] (M) -8.507, listed as Halofuginone (1)): 1.46E-01 and 1.20E-01 and 1.73E-01 and 3.30E-01 and 1.53E-01 and 2.25E-01
- normalized TR-FRET signal (dose-response replicates) (HsProRS; Log[inhibitor] (M) -8.797, listed as Halofuginone (1)): 4.78E-02 and 3.34E-01 and 2.48E-01 and 1.28E-01 and 3.36E-01 and 3.00E-01
- normalized TR-FRET signal (dose-response replicates) (HsProRS; Log[inhibitor] (M) -9.098, listed as Halofuginone (1)): 4.47E-01 and 3.74E-01 and 3.80E-01 and 4.11E-01 and 4.02E-01 and 4.65E-01
- normalized TR-FRET signal (dose-response replicates) (HsProRS; Log[inhibitor] (M) -9.407, listed as Halofuginone (1)): 2.38E-01 and 7.71E-01 and 7.58E-01 and 8.49E-01 and 6.67E-01 and 6.46E-01
- normalized TR-FRET signal (dose-response replicates) (HsProRS; Log[inhibitor] (M) -9.708, listed as Halofuginone (1)): 8.31E-01 and 9.16E-01 and 9.30E-01 and 9.90E-01 and 7.66E-01 and 7.98E-01
- normalized TR-FRET signal (dose-response replicates) (HsProRS; Log[inhibitor] (M) -10.018, listed as Halofuginone (1)): 7.34E-01 and 7.78E-01 and 9.27E-01 and 9.57E-01 and 7.69E-01 and 9.42E-01
- normalized TR-FRET signal (dose-response replicates) (HsProRS; Log[inhibitor] (M) -10.319, listed as Halofuginone (1)): 1.03E+00 and 8.60E-01 and 1.21E+00 and 9.50E-01 and 1.14E+00 and 9.79E-01
- normalized TR-FRET signal (dose-response replicates) (HsProRS; Log[inhibitor] (M) -10.62, listed as Halofuginone (1)): 1.02E+00 and 8.83E-01 and 9.73E-01 and 1.04E+00 and 9.53E-01 and 9.56E-01
- normalized TR-FRET signal (dose-response replicates) (HsProRS; Log[inhibitor] (M) -10.921, listed as Halofuginone (1)): 1.01E+00 and 1.12E+00 and 1.14E+00 and 9.45E-01 and 8.05E-01 and 9.06E-01
- normalized TR-FRET signal (dose-response replicates) (HsProRS; Log[inhibitor] (M) -11.098, listed as Halofuginone (1)): 9.11E-01 and 1.15E+00 and 1.13E+00 and 1.03E+00 and 9.58E-01 and 9.14E-01
- parasite growth, replicate wells (Fig 1b) (P. falciparum Dd2-2D4; Log[inhibitor] (M) -7.000): 1.00E+00
- parasite growth, replicate wells (Fig 1b) (P. falciparum Dd2-2D4; Log[inhibitor] (M) -7.301): 1.00E+00
- parasite growth, replicate wells (Fig 1b) (P. falciparum Dd2-2D4; [2]): 0.00E+00 (2×) and 1.00E+00
- parasite growth, replicate wells (Fig 1b) (P. falciparum Dd2-2D4; Log[inhibitor] (M) -7.903, listed as Halofuginone (1)): 2.00E+00 (2×) and 0.00E+00
- parasite growth, replicate wells (Fig 1b) (P. falciparum Dd2-2D4; Log[inhibitor] (M) -8.204, listed as Halofuginone (1)): 1.00E+00 (2×) and 0.00E+00

Reference: PMC9403976, “Elucidating the path to Plasmodium prolyl-tRNA synthetase inhibitors that overcome halofuginone resistance” (Nature Communications, 2022)
